{
  "source": "paper PMC7242257",
  "about": "“Impact of Magnesium Stearate Presence and Variability on Drug Apparent Solubility Based on Drug Physicochemical Properties” (The AAPS Journal, 2020)",
  "key": {"[1]": {"parameters": "method as in earlier work", "conditions": "based on BCS classification (20); ref (24), (26), (28), (29), (31), (34), (35), (38); cited from earlier work"}, "[2]": {"experiment": "Relative effect of MgSt on drug apparent solubility (shake-flask, physical mixtures)", "conditions": "phosphate buffer pH 6.8", "experimental": "Drug solubility studies in the absence and presence of excipient were performed in triplicate using the shake-flask method [41]. Drug excess amount and 2% w/w or 5% w/w of each excipient were weighed and placed in centrifuge tubes. […] The physical mixtures were vortexed for 3 min. Five millilitres of each medium was added in the tubes and the samples were placed in a shaking water bath (37°C, 200 strokes per minute (spm)). […] Filter adsorption studies were performed prior in triplicate for each drug. […] Filtered samples were further diluted (if needed) with the corresponding medium and analysed by HPLC (Supplementary Table I). […] Drug quantification was made based on calibration curves. Standards were formulated from concentrated stock solutions consisting of drug dissolved in MeOH. As changes in the pH of solutions by the presence of the dissolved drug [34] or MgSt [43, 44] may affect drug solubility, the pH of samples after the completion of each experiment was measured. Drug solubility was calculated based on the sample drug concentration measured.\nThe relative effect (RE) of each excipient on drug apparent solubility was calculated based on Eq."}},
  "data": [
    {"compound": "NC(=O)N1c2ccccc2C=Cc2ccccc21", "note": "[CBZ, Carbamazepine]", "values": [
      {"measurement": "Solubility (BCS-based class)", "setting": "[1]", "result": "Low (31)"},
      {"measurement": "Relative effect (RE) on drug solubility at 24 h", "setting": "[2]; 2% Ligamed MF-2-V", "result": 29, "unit": "%"},
      {"measurement": "Relative effect (RE) on drug solubility at 24 h", "setting": "[2]; 2% Ligamed MF-3-V", "result": 27, "unit": "%"}
    ]},
    {"compound": "OCCN(CCO)c1nc(N2CCCCC2)c2nc(N(CCO)CCO)nc(N3CCCCC3)c2n1", "note": "[DPL, Dipyridamole]", "values": [
      {"measurement": "Solubility (BCS-based class)", "setting": "[1]", "result": "Low (34)"}
    ]},
    {"compound": "CCC(C)n1ncn(-c2ccc(N3CCN(c4ccc(OCC5COC(Cn6cncn6)(c6ccc(Cl)cc6Cl)O5)cc4)CC3)cc2)c1=O", "note": "(centres unmarked) [ITZ, Itraconazole]", "values": [
      {"measurement": "Solubility (BCS-based class)", "setting": "[1]", "result": "Low (38)"}
    ]}
  ]
}
